Results from PMC10447463, “Data-mining unveils structure–property–activity correlation of viral infectivity enhancing self-assembling peptides” (Nature Communications, 2023).
Where two headings read alike, the source gives them in different places.

Legend:
[1] = type: physicochemical; conditions: for ThT Cat. / ThT-Fluorescence (categorical): ThT-active if fluorescence at least twice the control
Procedure, shortened: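 Fibrils (1 mg/mL solution) were mixed with 50 µM ThT in PBS for 15 min at RT, and fluorescence was read at λex 440/λem 488 nm against a PBS blank, as a triplicate mean ± SD. Zeta potential came from electrophoretic mobility (Smoluchowski) after 1 d aggregation at 1 mg/mL in PBS pH 7.4, diluted into 1 mM KCl.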

[2] = tested on: HIV-1 infection of TZM-bl cells; assay: HIV-1 infectivity enhancement assay, β-galactosidase luminescence; type: cell-based; conditions: for Rel-EFC / Log10 Infection Rel EFC: 1.3 µM peptide; for Rel-EFC: infection relative to EF-C (QCKIKQIINMWQ = 1); for Log10 Infection Rel EFC: log10 of infection relative to EF-C; for Log Infectivity: Log10 infection relative to EF-C, TZM-bl cells, asymmetric std dev errors; for Log10 Infection Rel EF-C: HIV-1 infection of TZM-bl cells; for Log10 of Rel to EFC (Feb2021): Log10 of infection relative to EF-C, all peptides of FigS16
[3] = β-sheet content by ATR-FT-IR; type: physicochemical; conditions: Fig. S7 panel A; β-sheet content by ATR-FT-IR
Procedure, shortened: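 In the conversion assay, unconverted peptide passing a 3 kDa membrane at 4 °C was labelled with fluorescamine alongside unfiltered PNF, both in DMSO, and read at 365/470 nm after 20 min at room temperature. β-sheet content relied on ATR FT-IR of lyophilized fibril powder.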

[4] = Conversion rate (CR) assay with fluorescamine; type: physicochemical; set-up: key to CR: % = 100−100×filtrate/original fluorescence intensity; conditions: conversion rate, fluorescamine assay
Protocol: For ATR FT–IR spectroscopy measurements, 200 µL of the respective 1 mg/mL PNF solution was lyophilized and the resulting powder used for measurement. All spectra were recorded on a Bruker Tensor 27 spectrometer with a diamond crystal as ATR element (PIKE MiracleTM, spectral resolution 2 cm^-1). Every sample was measured with 64 scans. Data were analyzed with OriginLab software and calculation of β–sheet content was conducted according to a previous report. TEM. For TEM measurements 5 µL of PNF fibrils (1 mg/mL) were placed on copper grids coated with carbon and formvar layer (300 mesh, Plano GmbH). After 10 min incubation time, the grids were staining with 4% uranyl acetate solution for 2.5 min and washed with water. Measurements were performed on a Jeol 1400 electron microscope with 120 kV acceleration voltage. CR Assay. For the determination of the amount of peptide monomer converting into nanostructures the amine reactive dye fluorescamine was used analogous to a previous reported protocol. Briefly, 100 µL of the preformed PNF solution was centrifuged in a Vivaspin 500 tube (3 kDa MWCO) to separate fibers from free peptide monomer (16200 x g, 4 °C, 45 min). The filtrate and 100 μL of the non-filtered PNF sample were lyophilized and dissolved in 30 μL DMSO. 10 μL of the filtrate and non-filtered DMSO samples were submitted in a black UV Star® 384 microliter well–plates (Greiner bio–one) and 3 μL of the fluorescamine solution (10 mg/mL, DMSO) was added to measure the fluorescence enhancement. After 20 min of incubation at RT, fluorescence was recorded on an Infinite® M1000 PRO microplate reader (Tecan) at λem = 470 nm upon excitation at λex = 365 nm with 10 nm bandwidths and multiple reads per well (3×3). Measurements were repeated in triplicates and averaged with standard deviation. All values were calculated as n-fold fluorescence enhancement (DMSO only as a reference was set to 1). The conversion rate CR was defined according to the equation Eq. (3).3 CR=100−100×fluorescenceintensityfiltrate/fluorescenceintensityoriginal[%]

[5] = ThT fluorescence category, 1 if Rel. ThT >2
[6] = Fig. S7 panel A (plotted against β-sheet content)
[7] = Log10 of infection rate relative to EF-C, Figure 3A source data
[8] = infection rate relative to EF-C, log10, data of Figure 2D
[9] = infection rate relative to EF-C, log10, source data of Figure 2C

Sequence | Tht category (> 2 to blank = +) ([1]; Fig S10 panel D) | Tht category (> 2 to blank = +) ([1]; FigS12 panel A) | ThT Cat, ([1]; FigS12 panel B) | ThT Cat, ([1]; ThT category, 1 if Rel. ThT >2) | ThT Cat. [1, 5] | ThT Cat. / ThT-Fluorescence (categorical) [1] | Rel-EFC [2] | Log10 Infection Rel EFC [2] | Log Infectivity [2, 6] | Log10 Infection Rel EF-C [2, 7] | Log10 Infection Rel EF-C [2, 8] | Log10 Infection Rel EF-C [2, 9] | b -sheet / % [3] [%] | Log10 of Rel to EFC (Feb2021) [2] | ThT Cat. ([1]; ThT category, 1 if Rel. ThT >2) | Abs. Inf. ([2]; absolute infection signal, HIV-1 on TZM-bl cells, β-galactosidase luminescence) | Log10 Inf. rel. to EF-C ([2]; log10 of HIV-1 infection of TZM-bl cells relative to EF-C (EF-C = 0)) | Log Infectivity ([2]; Fig. S7 panel B (plotted against CR), rounded to two decimals) | CR / % ([4]; Fig. S7 panel B) [%] | CR [4]
KVKVQVVV | 0 (ThT-inactive (N-Fold <2)) | 0 (ThT-inactive (N-Fold <2)) | 0 (ThT-inactive (N-Fold <2)) | 0 (ThT-inactive (N-Fold <2)) | 0 (ThT-inactive (N-Fold <2)) | 0 (ThT-inactive (N-Fold <2)) | 0,04 | -1,46 | -1.455 | -1.46 | -1.455 | -1.455 | 45.8125 | – | – | – | – | – | – | –
MKIKIQINM | 0 (ThT-inactive (N-Fold <2)) | – | – | 0 (ThT-inactive (N-Fold <2)) | 0 (ThT-inactive (N-Fold <2)) | 0 (ThT-inactive (N-Fold <2)) | 0,27 | -0,56 | -0.5635 | -0.56 | -0.5635 | -0.5635 | 38.6306 | -0.56 | – | – | – | – | – | –
MKIKIQINMWQ | 1 (ThT. Cat is 1, if Rel. ThT >2) | – | – | 1 (ThT. Cat is 1, if Rel. ThT >2) | 1 (ThT. Cat is 1, if Rel. ThT >2) | 1 (ThT. Cat is 1, if Rel. ThT >2) | 0,42 | -0,38 | -0.378 | -0.38 | -0.378 | -0.378 | 39.2 | -0.38 | – | – | – | – | – | –
QCKFKQFF | 1 (ThT. Cat is 1, if Rel. ThT >2) | 1 (ThT. Cat is 1, if Rel. ThT >2) | 1 (ThT. Cat is 1, if Rel. ThT >2) | 1 (ThT. Cat is 1, if Rel. ThT >2) | – | 1 (ThT. Cat is 1, if Rel. ThT >2) | 0,01 | -1,91 | -1.907 | -1.91 | -1.907 | -1.907 | 32.34 | – | 1 (ThT. Cat is 1, if Rel. ThT >2) | 170 | -1.907 | – | – | –
RGDCKIKIQINM | 0 (ThT-inactive (N-Fold <2)) | – | – | 0 (ThT-inactive (N-Fold <2)) | 0 (ThT-inactive (N-Fold <2)) | 0 (ThT-inactive (N-Fold <2)) | 0,24 | -0,63 | -0.6272 | -0.63 | -0.6272 | -0.6272 | 43 | -0.63 | – | – | – | – | – | –
RGDKIKIQINMC | – | – | – | 0 (ThT-inactive (N-Fold <2)) | 0 (ThT-inactive (N-Fold <2)) | 0 (ThT-inactive (N-Fold <2)) | 1,07 | 0,03 | – | 0.03 | 0.02911 | 0.02911 | – | 0.03 | – | – | – | 0.03 | 60 | 60
